Converted amounts (≈) assume the structure as drawn.
Key:
[1] = tested on: A549; experiment: MTT solid tumor cell proliferation inhibition, A549; assay type: cell-based, human; conditions: Homo sapiens; for inhibition at 16 µg/mL: A549, 16 μg/mL compound, 72 h, read-out: IR (inhibition rate); for IC50: A549, 72 h, MTT
Procedure: (§1) Human solid tumor cell lines: Hep-2 (laryngeal carcinoma), A549 (human lung cancer), CaES-17 (esophageal cancer cell), PC-3 (prostate cancer), CNE (nasopharyngeal carcinoma cell), and SK-OV-3 (ovarian cancer cell), all of which are purchased from China Center For Type Culture Collection; RKO (human colon adenocarcinoma cell), MGC 803 (human gastric cancer cell), MG63 (osteosarcoma) and U87 MG (malignant glioma cell), all of which are purchased from Fuxiang Bio-tech Co. Ltd., Shanghai, China; PANC-1 (pancreatic cancer), Hep G2 (human liver cancer cell), Becap37 (human breast cancer cell), and Hela (human cervical cancer cell), all of which are donated by Cancer Research Institute of Zhejiang University, China.
(§2) Obtaining 4000 well-growing human solid tumor cells and inoculating them into wells of a 96-well cell culture plate. The culture medium is DMEM High Glucose cell culture medium containing 10% fetal bovine serum. The plate is placed in a carbon dioxide cell incubator (5% CO2) at 37° C. for 24 hours for incubation. After being added with the amidated oleanolic acid derivatives of different concentrations and mixed uniformly, the plate is placed in a carbon dioxide cell incubator (5% CO2) at 37° C. for 72 hours for incubation. Then the relative number of the living cells is determined by the MTT method. In this experiment, the cell proliferation inhibition rate in control group (not treated with any compound) is set as 0%.

[2] = tested on: RPMI8226; experiment: MTT multiple myeloma cell proliferation inhibition, RPMI8226; assay type: cell-based; conditions: Homo sapiens, RPMI-8226; for inhibition at 16 µg/mL: RPMI8226, 16 μg/mL compound, 72 h, read-out: IR (inhibition rate); for IC50: RPMI8226, 72 h, MTT
Procedure: Multiple myeloma cell lines: RPMI8226 (multiple myeloma), purchased from Fuxiang Bio-tech Co. Ltd., Shanghai, China.
(§3) Obtaining 6000 well-growing leukemia cells and inoculating them into wells of a 96-well cell culture plate. The culture medium is the 1640 cell culture medium containing 10% fetal bovine serum. After adding the amidated oleanolic acid derivatives of different concentrations and mixing uniformly, placing the plate in a carbon dioxide cell incubator (5% CO2) at 37° C. and incubated for 72 hours. Then the relative number of viable cells is determined by the MTT method. In this experiment, the cell proliferation inhibition rate in control group (not treated with any compound) is set as 0%.

[3] = tested on: Kasumi-1; experiment: MTT leukemia cell proliferation inhibition, Kasumi-1; assay type: cell-based; conditions: Homo sapiens; for inhibition at 16 µg/mL: Kasumi-1, 16 μg/mL compound, 72 h, read-out: IR (inhibition rate); for IC50: Kasumi-1, 72 h, MTT
From the text: (§4) Leukemia cell lines: leukemia cell lines: K562/adr (drug-resistant, chronic myeloid leukemia, CML), NB4 (acute promyelocytic leukemia, AML), Kasumi-1 (acute myeloid leukemia M2 type, AML-M2), Jurkat (acute lymphoblastic leukemia, ALL), all of which are donated by Cancer Research Institute of Zhejiang University, China; and H9 (acute lymphoblastic leukemia, ALL), which is purchased from China Center for Type Culture Collection (CCTCC).
(§5) Reagents: The standard sample of oleanolic acid (OA) is purchased from Hua Kang Pharmaceutical Raw Material Factory, Shifang City, Sichuan, China; and the amidated oleanolic acid derivatives are prepared according to the present invention.
as §3

[4] = tested on: Hep-2; experiment: MTT solid tumor cell proliferation inhibition, Hep-2; assay type: cell-based, human; conditions: Homo sapiens; for inhibition at 16 µg/mL: Hep-2, 16 μg/mL compound, 72 h, read-out: IR (inhibition rate); for IC50: Hep-2, 72 h, MTT
Procedure: as §1, §2

[5] = tested on: K562/adr; experiment: MTT leukemia cell proliferation inhibition, K562/adr; assay type: cell-based; conditions: Homo sapiens, 72 h; for inhibition at 16 µg/mL: 16 μg/mL compound, read-out: IR (inhibition rate); for IC50: MTT
From the text: as §4, §5, §3

[6] = tested on: PC-3; experiment: MTT solid tumor cell proliferation inhibition, PC-3; assay type: cell-based, human; conditions: for inhibition at 16 µg/mL / IC50: Homo sapiens; for inhibition at 16 µg/mL: PC-3, 16 μg/mL compound, 72 h, read-out: IR (inhibition rate); for IC50: PC-3, 72 h, MTT
Procedure: as §1, §2

[7] = tested on: NB4; experiment: MTT leukemia cell proliferation inhibition, NB4; assay type: cell-based; conditions: Homo sapiens, NB-4; for inhibition at 16 µg/mL: NB4, 16 μg/mL compound, 72 h, read-out: IR (inhibition rate); for IC50: NB4, 72 h, MTT
From the text: as §4, §5, §3

[8] = tested on: PANC-1; experiment: MTT solid tumor cell proliferation inhibition, PANC-1; assay type: cell-based, human; conditions: for inhibition at 16 µg/mL / IC50: Homo sapiens; for inhibition at 16 µg/mL: PANC-1, 16 μg/mL compound, 72 h, read-out: IR (inhibition rate); for IC50: PANC-1, 72 h, MTT
Procedure: as §1, §2

[9] = tested on: Hep G2; experiment: MTT solid tumor cell proliferation inhibition, Hep G2; assay type: cell-based; conditions: Homo sapiens, HepG2; for inhibition at 16 µg/mL: Hep G2, 16 μg/mL compound, 72 h, read-out: IR (inhibition rate); for IC50: Hep G2, 72 h, MTT
Procedure: as §1, §2

[10] = tested on: Jurkat; experiment: MTT leukemia cell proliferation inhibition, Jurkat; assay type: cell-based; conditions: Homo sapiens, 72 h; for inhibition at 16 µg/mL: 16 μg/mL compound, read-out: IR (inhibition rate); for IC50: MTT
From the text: as §4, §5, §3

[11] = tested on: CNE; experiment: MTT solid tumor cell proliferation inhibition, CNE; assay type: cell-based, human; conditions: for inhibition at 16 µg/mL / IC50: Homo sapiens, CNE, 72 h; for inhibition at 16 µg/mL: 16 μg/mL compound, read-out: IR (inhibition rate); for IC50: MTT
Procedure: as §1, §2

[12] = tested on: RKO; experiment: MTT solid tumor cell proliferation inhibition, RKO; assay type: cell-based; conditions: Homo sapiens, 72 h; for inhibition at 16 µg/mL: 16 μg/mL compound, read-out: IR (inhibition rate); for IC50: MTT
Procedure: as §1, §2

[13] = tested on: MGC803; experiment: MTT solid tumor cell proliferation inhibition, MGC803; assay type: cell-based, human; conditions: for inhibition at 16 µg/mL / IC50: Homo sapiens, MGC-803; for inhibition at 16 µg/mL: MGC803, 16 μg/mL compound, 72 h, read-out: IR (inhibition rate); for IC50: MGC803, 72 h, MTT
Procedure: as §1, §2

[14] = tested on: CaES-17; experiment: MTT solid tumor cell proliferation inhibition, CaES-17; assay type: cell-based, human; conditions: Homo sapiens, CaEs17; for inhibition at 16 µg/mL: CaES-17, 16 μg/mL compound, 72 h, read-out: IR (inhibition rate); for IC50: CaES-17, 72 h, MTT
Procedure: as §1, §2

[15] = tested on: U87 MG; experiment: MTT solid tumor cell proliferation inhibition, U87 MG; assay type: cell-based, human; conditions: Homo sapiens, U-87 MG, U87 MG, 72 h; for inhibition at 16 µg/mL: 16 μg/mL compound, read-out: IR (inhibition rate); for IC50: MTT
Procedure: as §1, §2

[16] = tested on: SK-OV-3; experiment: MTT solid tumor cell proliferation inhibition, SK-OV-3; assay type: cell-based, human; conditions: for inhibition at 16 µg/mL / IC50: Homo sapiens; for inhibition at 16 µg/mL: SK-OV-3, 16 μg/mL compound, 72 h, read-out: IR (inhibition rate); for IC50: SK-OV-3, 72 h, MTT
Procedure: as §1, §2

[17] = tested on: Hela; experiment: MTT solid tumor cell proliferation inhibition, Hela; assay type: cell-based, human; conditions: for inhibition at 16 µg/mL / IC50: Homo sapiens, Hela, 72 h; for inhibition at 16 µg/mL: 16 μg/mL compound, read-out: IR (inhibition rate); for IC50: MTT
Procedure: as §1, §2

[18] = tested on: H9; experiment: MTT leukemia cell proliferation inhibition, H9; assay type: cell-based, human; conditions: for improvement of cell inhibition rate as compared with oleanolic acid: H9 cells; for inhibition at 16 µg/mL / IC50: Homo sapiens; for inhibition at 16 µg/mL: H9, 16 μg/mL compound, 72 h, read-out: IR (inhibition rate); for IC50: H9, 72 h, MTT
From the text: as §4, §5, §3

[19] = tested on: MG 63; experiment: MTT solid tumor cell proliferation inhibition, MG 63; assay type: cell-based, human; conditions: for IC50: Homo sapiens, MG 63, 72 h, MTT; for IR (inhibition rate): MG 63, 16 μg/mL compound, 72 h
Procedure: as §1, §2

[20] = tested on: Becap37; experiment: MTT solid tumor cell proliferation inhibition, Becap37; assay type: cell-based; conditions: Homo sapiens; for inhibition at 16 µg/mL: Becap37, 16 μg/mL compound, 72 h, read-out: IR (inhibition rate); for IC50: Becap37, 72 h, MTT
Procedure: as §1, §2

## CC1(C)CC[C@]2(NC(=O)c3cccnc3Cl)CC[C@]3(C)C(=CC[C@@H]4[C@@]5(C)CC[C@H](O)C(C)(C)[C@@H]5CC[C@]43C)[C@@H]2C1 [BS-OA-096]
[1]
  inhibition at 16 µg/mL: 18.7%
  IC50: > 16 µg/mL
[2]
  inhibition at 16 µg/mL: 96.9%
  IC50: 9.2 µg/mL (≈ 16.2 µM)
[3]
  inhibition at 16 µg/mL: 33.6%
  IC50: > 16 µg/mL
[4]
  inhibition at 16 µg/mL: 20.6%
  IC50: > 16 µg/mL
[5]
  inhibition at 16 µg/mL: 81.9%
  IC50: 8.53 µg/mL (≈ 15 µM)
[6]
  inhibition at 16 µg/mL: 48.1%
  IC50: 18.3 µg/mL (≈ 32.2 µM)
[7]
  inhibition at 16 µg/mL: 100%
  IC50: 11.2 µg/mL (≈ 19.7 µM)
[8]
  inhibition at 16 µg/mL: 59.1%
  IC50: 14.7 µg/mL (≈ 25.9 µM)
[8]; PANC-1 cells
  improvement of inhibition rate as compared with oleanolic acid: ~7 fold
[9]
  inhibition at 16 µg/mL: 40.1%
  IC50: 18.5 µg/mL (≈ 32.6 µM)
[10]
  inhibition at 16 µg/mL: 55.3%
  IC50: 15.3 µg/mL (≈ 27 µM)
[11]; CNE cells
  improvement of inhibition rate as compared with oleanolic acid: ~2 fold
[11]
  inhibition at 16 µg/mL: 63.9%
  IC50: 14 µg/mL (≈ 24.7 µM)
[12]
  inhibition at 16 µg/mL: 59.4%
  IC50: 14.7 µg/mL (≈ 26 µM)
[13]
  inhibition at 16 µg/mL: 70%
  IC50: 13.6 µg/mL (≈ 23.9 µM)
[13]; MGC803 cells
  improvement of inhibition rate as compared with oleanolic acid: ~3 fold
[14]
  inhibition at 16 µg/mL: 39.8%
  IC50: > 16 µg/mL
[15]
  inhibition at 16 µg/mL: 38.5%
  IC50: > 16 µg/mL
[16]
  inhibition at 16 µg/mL: 97%
  IC50: 10.1 µg/mL (≈ 17.8 µM)
[16]; SKOV-3 cells
  improvement of cell inhibition rate as compared with oleanolic acid: > 12 fold
[17]; Hela cells
  improvement of inhibition rate as compared with oleanolic acid: ~4 fold
[17]
  inhibition at 16 µg/mL: 88.9%
  IC50: 9.43 µg/mL (≈ 16.6 µM)
[18]
  improvement of cell inhibition rate as compared with oleanolic acid: ~4 fold
  inhibition at 16 µg/mL: 84%
  IC50: 10.7 µg/mL (≈ 18.9 µM)
[19]
  IC50: 13.8 µg/mL (≈ 24.3 µM)
  IR (inhibition rate): 78.1%
[20]
  inhibition at 16 µg/mL: 39.3%
  IC50: > 16 µg/mL

## CC1(C)CC[C@]2(NC(=O)C3CC3)CC[C@]3(C)C(=CC[C@@H]4[C@@]5(C)CC[C@H](O)C(C)(C)[C@@H]5CC[C@]43C)[C@@H]2C1 [BS-OA-097]
[1]
  inhibition at 16 µg/mL: 38.1%
  IC50: > 16 µg/mL
[2]
  inhibition at 16 µg/mL: 95.3%
  IC50: 3.51 µg/mL (≈ 7.08 µM)
[3]
  inhibition at 16 µg/mL: 42.9%
  IC50: > 16 µg/mL
[4]
  inhibition at 16 µg/mL: 28.5%
  IC50: > 16 µg/mL
[5]
  inhibition at 16 µg/mL: 91.3%
  IC50: 2.4 µg/mL (≈ 4.84 µM)
[6]
  inhibition at 16 µg/mL: 56.6%
  IC50: 13.1 µg/mL (≈ 26.3 µM)
[6]; PC-3 cells
  improvement of cell inhibition rate as compared with oleanolic acid: ~2 fold
[7]
  inhibition at 16 µg/mL: 93.4%
  IC50: 6.51 µg/mL (≈ 13.1 µM)
[8]
  inhibition at 16 µg/mL: 38.8%
  IC50: > 16 µg/mL
[9]
  inhibition at 16 µg/mL: 35.1%
  IC50: > 16 µg/mL
[10]
  inhibition at 16 µg/mL: 56.6%
  IC50: 14.3 µg/mL (≈ 28.9 µM)
[11]
  inhibition at 16 µg/mL: 40%
  IC50: > 16 µg/mL
[12]
  inhibition at 16 µg/mL: 29%
  IC50: > 16 µg/mL
[13]
  inhibition at 16 µg/mL: 56.1%
  IC50: 14.4 µg/mL (≈ 29 µM)
[14]
  inhibition at 16 µg/mL: 45.7%
  IC50: 18.9 µg/mL (≈ 38.1 µM)
[15]
  inhibition at 16 µg/mL: 37.4%
  IC50: > 16 µg/mL
[16]
  inhibition at 16 µg/mL: 68.9%
  IC50: 7.63 µg/mL (≈ 15.4 µM)
[17]
  inhibition at 16 µg/mL: 64.4%
  IC50: 11.9 µg/mL (≈ 24 µM)
[18]
  improvement of cell inhibition rate as compared with oleanolic acid: ~4 fold
  inhibition at 16 µg/mL: 85.3%
  IC50: 6.3 µg/mL (≈ 12.7 µM)
[19]
  IC50: 13.2 µg/mL (≈ 26.5 µM)
  IR (inhibition rate): 78.6%
[20]
  inhibition at 16 µg/mL: 41.3%
  IC50: > 16 µg/mL

— patent publication US8987502B2, “Oleanolic acid amidate derivatives, preparation methods and uses thereof” (Hangzhou Bensheng Pharmaceutical Co., Ltd., priority 2011, dated 2015)
